Test results reported in US9999605B2, “Preparation for treatment of a non-oral treatment site comprising an active chlorine compound and amino acids” (RLS GLOBAL AB, priority 2012, dated 2018).

Key:
Staphylococcus = experiment: Example 2: bacterial cultivation, resistance; format: cell-based; settings: bacterial cultivation from the leg ulcer
amputation wound = experiment: Example 4: treatment of an amputation wound; format: in vivo, human; settings: 750 mg×3, prescribed May 24, 2012, before the test treatments
Procedure: If nothing else is mentioned herein below, the treatment preparation used in the examples below was prepared just before application by mixing one volume of a component containing aqueous NaOCl in an amount of 1-2% (by weight) with one volume of a component containing amino acids lys+Glu+Leu (1:1:1 relation and 0.7-0.8% total amino content by weight), TiO2 (0.04% by weight), NaCl (0.3-0.6% by weight), Na-CMC (medium viscosity; 3% by weight), and NaOH (added to adjust the pH to be 9.5-10.5 by weight). Medium viscosity of carboxymethyl cellulose is defined as 400-800 (mPas).
The components were mixed and the resulting mixture, i.e. the treatment preparation, was applied immediately (within seconds at the most one minute) to the treatment site, e.g. an ulcer. In this way there was provided that the mentioned chemical reaction forming halogenated amino acids occurs in contact with the treatment site. The resulting chemical reaction was allowed to proceed so as to separate dead tissue from healthy tissue as well as decomposing and/or destroying bacteria. The mixture in the form a solution was left within the treatment area, e.g. ulcer, for 5 minutes or less, wherein the reaction proceeds such that bubbles and a smell of chlorine appear and then disappear in the preparation. […]

| SMILES | resistance of cultivated Staphylococcus (Staphylococcus) | effect of antibiotic on non-healing amputation wound (amputation wound) |
| --- | --- | --- |
| CC1(C)S[C@@H]2[C@H](NC(=O)COc3ccccc3)C(=O)N2[C@H]1C(=O)O [fenoximetylpenicillin] | resistant | – |
| Cc1onc(-c2c(F)cccc2Cl)c1C(=O)N[C@@H]1C(=O)N2[C@@H]1SC(C)(C)[C@@H]2C(=O)O [Heracillin®] | – | did not improve their condition |
| Cc1onc(-c2c(F)cccc2Cl)c1C(=O)N[C@@H]1C(=O)N2[C@@H]1SC(C)(C)[C@@H]2C(=O)O [flukloxacillin] | resistant | – |
